For eleven compounds, MIC, Kd and Activity results are on record in ChEMBL document CHEMBL2331416, “Investigation of antibacterial mode of action for traditional and amphiphilic aminoglycosides” (Bioorg Med Chem Lett, 2013).

Molecules are shown by their SMILES. Values after ≈ are worked out from the molar mass of the structure shown. Active and inactive are the calls of the source. No cut-off for these calls is given here.

Test [1] relates to Staphylococcus aureus. As to the kind of experiment: Antibacterial activity against Staphylococcus aureus ATCC 25923 assessed as growth inhibition. The format is functional.
The nature of test [2]: Binding affinity to 2-AP labeled 16s rRNA (unknown origin) having pairing of G1405-C1496 by fluorescence assay.
The nature of test [3]: Binding affinity to 2-AP labeled 16s rRNA (unknown origin) having pairing of C1405-G1496 by fluorescence assay.
In test [4] the test system is Escherichia coli. The test can be described thus: Antibacterial activity against Escherichia coli ATCC 25922 assessed as growth inhibition. The format is functional.
The subject of test [5] is Staphylococcus aureus. The test can be described thus: Antibacterial activity against Staphylococcus aureus ATCC 25923 assessed as membrane disruption at 4 X MIC after 2 hrs by SYTOX staining-based fluorescence microscopic analysis. The format is functional, organism-based.
Test [6] relates to Escherichia coli. As to the kind of experiment: Antibacterial activity against Escherichia coli ATCC 25922 assessed as membrane disruption at 4 X MIC after 2 hrs by SYTOX staining-based fluorescence microscopic analysis. The format is functional, organism-based.

One may read the MIC as the lowest concentration found to suppress growth. One may read the Kd as the free concentration of one partner at which half of the binding sites on the other are occupied at equilibrium, for simple one-to-one binding. Regarding `NC[C@H]1O[C@H](O[C@H]2[C@H](O[C@@H]3O[C@H](CO)[C@@H](O)[C@H](N)[C@H]3O)[C@@H](O)[C@H](N)C[C@@H]2N)[C@H](N)[C@@H](O)[C@@H]1O`, the minimum inhibitory concentration (MIC) in test [1] was 59.2 µM (≈ 28.6 µg/mL); in test [4], 57.2 µM (≈ 27.7 µg/mL). Also, the dissociation constant (Kd) result in test [2] was “Not Active”; in test [3], 1150 nM.
Turning to `NC[C@H]1O[C@H](O[C@H]2[C@H](O[C@@H]3O[C@H](CO)[C@@H](N)[C@H](O)[C@H]3O)[C@@H](O)[C@H](N)C[C@@H]2N)[C@H](N)[C@@H](O)[C@@H]1O`, the minimal inhibitory concentration (MIC) in test [1] was 29.6 µM (≈ 14.3 µg/mL); in test [4], 44 µM (≈ 21.3 µg/mL). Further, the Kd came out at 5680 nM in test [2] (read-out: Kd) and 2830 nM in test [3].
In the case of `CCCCCCCCCCCCCCCC(=O)NC[C@H]1O[C@@H](O[C@@H]2[C@@H](O)[C@H](N)C[C@H](N)[C@H]2O[C@H]2O[C@H](CN)[C@@H](O)[C@H](O)[C@H]2N)[C@H](O)[C@@H]1O[C@@H]1O[C@H](CN)[C@H](O)[C@@H](O)[C@@H]1N`, the MIC amounted to 2.35 µM (≈ 2 µg/mL) in test [1] and 4.69 µM (≈ 4 µg/mL) in test [4]. The outcome in test [5] and in test [6] was Active. Moreover, the Kd in test [2] (read-out: Kd) worked out at 1270 nM; in test [3] it was 737 nM.
With `C[C@H]1O[C@@H](O[C@@H]2[C@@H](O)[C@H](N)C[C@H](N)[C@H]2O[C@H]2O[C@H](CN)[C@@H](O)[C@H](O)[C@H]2N)[C@H](O)[C@@H](O)[C@@H]1N`, the MIC in test [1] came to 11 µM (≈ 5.14 µg/mL); in test [4], 19.8 µM (≈ 9.26 µg/mL). The equilibrium dissociation constant (Kd) entry is “Not Active” in test [2] and 556 nM in test [3].
On to `C[C@H]1O[C@@H](O[C@@H]2[C@@H](O)[C@H](N)C[C@H](N)[C@H]2O[C@H]2O[C@H](CN)CC[C@H]2N)[C@H](O)[C@@H](O)[C@@H]1O`, for which the minimum inhibitory concentration (MIC) in test [1] turned out to be 6.5 µM (≈ 2.84 µg/mL); in test [4], 26 µM (≈ 11.3 µg/mL). Besides, the results for the dissociation constant Kd in test [2] (read-out: Kd) and in test [3] were 1330 nM and 1200 nM, respectively.
For `NC[C@H]1O[C@@H](O[C@@H]2[C@@H](O)[C@H](N)C[C@H](N)[C@H]2O[C@H]2O[C@H](CN)[C@@H](O)[C@H](O)[C@H]2N)[C@H](O)[C@@H](O)[C@@H]1N`, the minimal inhibitory concentration (MIC) in test [1] amounted to 29.6 µM (≈ 14.3 µg/mL); in test [4], 41.8 µM (≈ 20.2 µg/mL). Further, the equilibrium dissociation constant (Kd) in test [2] (read-out: Kd) came out at 3720 nM; in test [3] it was 261 nM.
`NCC[C@H](O)C(=O)N[C@@H]1C[C@H](N)[C@@H](O[C@H]2O[C@H](CN)[C@@H](O)[C@H](O)[C@H]2N)[C@H](O[C@@H]2O[C@H](CO)[C@@H](O[C@@H]3O[C@H](CN)[C@H](O)[C@@H](O)[C@@H]3N)[C@H]2O)[C@H]1O` [NEOKACIN]: the values for the minimum inhibitory concentration (MIC) in test [1] and in test [4] were 2.15 µM (≈ 1.54 µg/mL) and 8.59 µM (≈ 6.15 µg/mL), respectively. The equilibrium dissociation constant (Kd) result in test [2] is “Not Active”; in test [3], 1640 nM.
In the case of `NC[C@H]1O[C@H](O[C@H]2[C@H](O[C@@H]3O[C@H](CO)[C@@H](O)[C@H](O)[C@H]3O)[C@@H](O)[C@H](N)C[C@@H]2N)[C@H](N)[C@@H](O)[C@@H]1O`, the MIC worked out at 44.4 µM (≈ 21.5 µg/mL) in test [1] and 92.4 µM (≈ 44.8 µg/mL) in test [4]. The Kd in test [2] (read-out: Kd) stood at 9670 nM; in test [3] it was 608 nM.
For `C[C@H]1O[C@@H](O[C@@H]2[C@@H](O)[C@H](NC(=O)[C@@H](O)CCN)C[C@H](N)[C@H]2O[C@H]2O[C@H](CN)CC[C@H]2N)[C@H](O)[C@@H](O)[C@@H]1N` [PYRANKACIN], in that order: 2.8 µM (≈ 1.5 µg/mL), 5.59 µM (≈ 3 µg/mL), 650 nM and 1360 nM.
Turning to `NC[C@H]1O[C@@H](O[C@@H]2[C@@H](O)[C@H](N)C[C@H](N)[C@H]2O[C@H]2O[C@H](CN)[C@@H](O)[C@H](O)[C@H]2N)[C@H](O)[C@@H](O)[C@@H]1O`, the MIC in test [1] was 14.8 µM (≈ 7.16 µg/mL); in test [4], 35.1 µM (≈ 17 µg/mL). Also, the Kd in test [2] (read-out: Kd) was 26000 nM; in test [3], 845 nM.
Regarding `NC[C@@H]1O[C@H](O[C@H]2[C@@H](O)[C@H](O[C@@H]3[C@@H](O)[C@H](N)C[C@H](N)[C@H]3O[C@H]3O[C@H](CN)[C@@H](O)[C@H](O)[C@H]3N)O[C@@H]2CO)[C@H](N)[C@@H](O)[C@@H]1O` [FRAMYCETIN], the MIC turned out to be 1.1 µM (≈ 0.676 µg/mL) in test [1] and 4.4 µM (≈ 2.7 µg/mL) in test [4]. Also, the result in test [5] was inactive. The dissociation constant Kd in test [2] (read-out: Kd) is 1150 nM; in test [3], 1270 nM.
